US20090239845A1, “PYRAZOLE COMPOUNDS AS PROSTAGLANDIN RECEPTORS LIGANDS” (priority 2005, published 2009)
Counter-ions that a name gives are not always drawn.

Target: T1, human EP1 receptor (Homo sapiens, UniProt P34995)
T1 construct: expressed in transfected cells; host or cells: CHO-K1
T1 sequence (P34995 1-402): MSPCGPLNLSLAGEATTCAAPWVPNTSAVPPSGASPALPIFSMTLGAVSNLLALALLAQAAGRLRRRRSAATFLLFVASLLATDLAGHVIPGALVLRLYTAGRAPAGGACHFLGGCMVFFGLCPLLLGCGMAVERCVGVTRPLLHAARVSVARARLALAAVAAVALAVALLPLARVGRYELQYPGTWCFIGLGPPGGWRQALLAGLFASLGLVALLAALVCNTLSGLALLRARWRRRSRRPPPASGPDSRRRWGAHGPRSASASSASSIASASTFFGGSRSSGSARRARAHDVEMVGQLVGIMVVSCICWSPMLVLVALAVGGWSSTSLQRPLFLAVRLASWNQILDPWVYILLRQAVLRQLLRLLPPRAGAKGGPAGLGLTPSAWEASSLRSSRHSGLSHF
Test: human EP1 calcium mobilisation assay
Format: cell-based
Settings: negative logarithm10 of the antagonist dissociation constant; CHO-K1 cells, PGE2; free bases or sodium salts; averages of a number of experiments; read-out: functional pKi value (converted)
Experimental: Briefly, the antagonist properties of compounds are assessed by their ability to inhibit the mobilisation of intracellular calcium ([Ca^2+]i) in response to activation of EP1 or EP3 receptors by the natural agonist hormone prostaglandin E2 (PGE2). Increasing concentrations of antagonist reduce the amount of calcium that a given concentration of PGE2 can mobilise. The net effect is to displace the PGE2 concentration-effect curve to higher concentrations of PGE2. The amount of calcium produced is assessed using a calcium-sensitive fluorescent dye such as Fluo-4, AM and a suitable instrument such as a Fluorimetric Imaging Plate Reader (FLIPR). Increasing amounts of [Ca^2+]i produced by receptor activation increase the amount of fluorescence produced by the dye and give rise to an increasing signal. The signal may be detected using the FLIPR instrument and the data generated may be analysed with suitable curve-fitting software.
The human EP1 or EP3 calcium mobilisation assay (hereafter referred to as ‘the calcium assay’) utilises Chinese hamster ovary-K1 (CHO-K1) cells into which a stable (pCIN; BioTechniques 20 (1996): 102-110) vector containing either EP1 or EP3 cDNA has previously been transfected. Cells are cultured in suitable flasks containing culture medium such as DMEM:F-12 supplemented with 10% v/v foetal calf serum, 2 mM L-glutamine, 0.25 mg/ml geneticin, 100 μM flurbiprofen and 10 μg/ml puromycin.
For assay, cells are harvested using a proprietary reagent that dislodges cells such as Versene. Cells are re-suspended in a suitable quantity of fresh culture media for introduction into a 384-well plate. Following incubation for 24 hours at 37° C. the culture media is replaced with a medium containing Fluo-4 and the detergent pluronic acid, and a further incubation takes place. Concentrations of compounds are then added to the plate in order to construct concentration-effect curves. This may be performed on the FLIPR in order to assess the agonist properties of the compounds. Concentrations of PGE2 are then added to the plate in order to assess the antagonist properties of the compounds.
The data so generated may be analysed by means of a computerised curve-fitting routine. The concentration of compound that elicits a half-maximal inhibition of the calcium mobilisation induced by PGE2 (plC50) may then be estimated.

Ki [µM]	Compound
> 1	Cc1cc(NC(=O)Cc2ccncc2)nn1Cc1cc(Cl)ccc1OCc1ccccc1 [Example 149, N-[1-({5-Chloro-2-[(phenylmethyl)oxy]phenyl}methyl)-5-methyl-1H-pyrazol-3-yl]-2-(4-pyridinyl)-acetamide]
> 1	Cc1cc(N2CCN(CC3CCCCC3)CC2=O)nn1Cc1cc(Cl)ccc1OCc1ccccc1 [Example 249, 1-[1-({5-Chloro-2-[(phenylmethyl)oxy]phenyl}methyl)-5-methyl-1H-pyrazol-3-yl]-4-(cyclohexylmethyl)-2-piperazinone hydrochloride]
> 1	Cc1cc(N2CCN(Cc3ccc(Cl)cc3)CC2=O)nn1Cc1cc(Cl)ccc1OCC1CCCCO1 (stereo not drawn) [Example 284, 4-[(4-Chlorophenyl)methyl]-1-[1-({5-chloro-2-[(tetrahydro-2H-pyran-2-ylmethyl)oxy]phenyl}methyl)-5-methyl-1H-pyrazol-3-yl]-2-piperazinone]
> 1	Cc1cc(C(=O)NC(C)C)nn1Cc1cc(Cl)ccc1OCc1ccccc1 [Example 290, 1-({5-Chloro-2-[(phenylmethyl)oxy]phenyl}methyl)-5-methyl-N-(1-methylethyl)-1H-pyrazole-3-carboxamide]
> 1	CNC(=O)c1cc(C)n(Cc2cc(Cl)ccc2OCc2ccccc2)n1 [Example 296, 1-({5-Chloro-2-[(phenylmethyl)oxy]phenyl}methyl)-N,5-dimethyl-1H-pyrazole-3-carboxamide]
> 1	Cc1cc(C(=O)NCc2ccccn2)nn1Cc1cc(Cl)ccc1OCc1ccc(Cl)cc1F [Example 340, 1-[(5-Chloro-2-{[(4-chloro-2-fluorophenyl)methyl]oxy}phe-nyl)methyl]-5-methyl-N-(2-pyridinylmethyl)-1H-pyrazole-3-carboxamide]
> 1	Cc1cc(-c2nc3nccnc3[nH]2)nn1Cc1cc(Cl)ccc1OCC(C)C [Example 371, 2-[1-({5-Chloro-2-[(2-methylpropyl)oxy]phenyl}methyl)-5-methyl-1H-pyrazol-3-yl]-1H-imidazo[4,5-b]pyrazine hydrochloride]
> 1	Cc1cc(-c2nc3cc(F)c(F)cc3[nH]2)nn1Cc1cc(Cl)ccc1OCC(C)C [Example 376, 2-[1-({5-Chloro-2-[(2-methylpropyl)oxy]phenyl}methyl)-5-methyl-1H-pyrazol-3-yl]-5,6-difluoro-1H-benzimidazole]
> 1	CNCc1ccc(NC(=O)c2cc(C)n(Cc3cc(Cl)ccc3OCC(C)C)n2)c(OC)c1 [Example 412, 1-({5-Chloro-2-[(2-methylpropyl)oxy]phenyl}methyl)-5-methyl-N-[4-[(methylamino)methyl]-2-(methyloxy)phenyl]-1H-pyrazole-3-carboxamide hydrochloride]
> 1	CCN(CC)Cc1ccc(C(=O)Nc2cc(C)n(Cc3cc(Cl)ccc3OCC(C)C)n2)cc1F [Example 435, N-[1-({5-chloro-2-[(2-methylpropyl)oxy]phenyl}methyl)-5-methyl-1H-pyrazol-3-yl]-4-[(diethylamino)methyl]-3-fluorobenzamide hydrochloride]
> 1	Cc1cc(NC(=O)c2ccc(CN3CCCCC3)c(F)c2)nn1Cc1cc(Cl)ccc1OCC(C)C [Example 436, N-[1-({5-chloro-2-[(2-methylpropyl)oxy]phenyl}methyl)-5-methyl-1H-pyrazol-3-yl]-3-fluoro-4-(1-piperidinylmethyl)benzamide hydrochloride]
> 1	Cc1cc(NC(=O)c2ccc(CNCC(C)C)c(F)c2)nn1Cc1cc(Cl)ccc1OCC(C)C [Example 438, N-[1-({5-chloro-2-[(2-methylpropyl)oxy]phenyl}methyl)-5-methyl-1H-pyrazol-3-yl]-3-fluoro-4-{[(2-methylpropyl)amino]methyl}benzamide hydrochloride]
> 1	Cc1cc(NC(=O)c2c(F)cc(CNC(C)C)cc2F)nn1Cc1cc(Cl)ccc1OCC(C)C [Example 440, N-[1-({5-chloro-2-[(2-methylpropyl)oxy]phenyl}methyl)-5-methyl-1H-pyrazol-3-yl]-2,6-difluoro-4-{[(1-methylethyl)amino]methyl}benzamide hydrochloride]

Further lines, the compound ahead of its results:

Compound	Ki [µM]
Cc1cc(N2CCN(Cc3ccccc3)CC2)nn1Cc1cc(Cl)ccc1OCc1ccccc1 [Example 288, 4-[1-({5-Chloro-2-[(phenylmethyl)oxy]phenyl}methyl)-5-methyl-1H-pyrazol-3-yl]-1-(phenylmethyl)piperazin-1-ium chloride]	> 1
Cc1cc(C(=O)Nc2ccccc2)nn1Cc1cc(Cl)ccc1OCc1ccccc1 [Example 291, 1-({5-Chloro-2-[(phenylmethyl)oxy]phenyl}methyl)-5-methyl-N-phenyl-1H-pyrazol-3-carboxamide]	> 1
Cc1cc(C(=O)NCc2ccccc2)nn1Cc1cc(Cl)ccc1OCc1ccccc1 [Example 292, 1-({5-Chloro-2-[(phenylmethyl)oxy]phenyl}methyl)-5-methyl-N-(phenylmethyl)-1H-pyrazol-3-carboxamide]	> 1
Cc1cc(C(=O)NCc2cccnc2)nn1Cc1cc(Cl)ccc1OCc1ccccc1 [Example 294, 1-({5-Chloro-2-[(phenylmethyl)oxy]phenyl}methyl)-5-methyl-N-(3-pyridinylmethyl)-1H-pyrazole-3-carboxamide]	> 1
Cc1cc(C(=O)Nc2ccccn2)nn1Cc1cc(Cl)ccc1OCc1ccccc1 [Example 297, 1-({5-Chloro-2-[(phenylmethyl)oxy]phenyl}methyl)-5-methyl-N-2-pyridinyl-1H-pyrazole-3-carboxamide]	> 1
Cc1cc(C(=O)Nc2ccccc2Cl)nn1Cc1cc(Cl)ccc1OCc1ccccc1 [Example 300, N-(2-Chlorophenyl)-1-({5-chloro-2-[(phenylmethyl)oxy]phenyl}methyl)-5-methyl-1H-pyrazole-3-carboxamide]	> 1
Cc1cc(C(=O)Nc2ccccc2C#N)nn1Cc1cc(Cl)ccc1OCc1ccccc1 [Example 304, 1-({5-Chloro-2-[(phenylmethyl)oxy]phenyl}methyl)-N-(2-cyanophenyl)-5-methyl-1H-pyrazole-3-carboxamide]	> 1
Cc1cc(C(=O)Nc2ccc(C#N)cc2)nn1Cc1cc(Cl)ccc1OCc1ccccc1 [Example 306, 1-({5-Chloro-2-[(phenylmethyl)oxy]phenyl}methyl)-N-(4-cyanophenyl)-5-methyl-1H-pyrazole-3-carboxamide]	> 1
Cc1cc(C(=O)NCc2ccccn2)nn1Cc1cc(Cl)ccc1OCc1cc(F)c(F)cc1F [Example 338, 1-[(5-Chloro-2-{[(2,4,5-trifluorophenyl)methyl]oxy}phe-nyl)methyl]-5-methyl-N-(2-pyridinylmethyl)-1H-pyrazole-3-carboxamide]	> 1
Cc1cc(C(=O)NCc2ccccn2)nn1Cc1cc(Cl)ccc1OCc1ccc(F)c(F)c1F [Example 339, 1-[(5-Chloro-2-{[(2,3,4-trifluoro-phenyl)methyl]oxy}phe-nyl)methyl]-5-methyl-N-(2-pyridinylmethyl)-1H-pyrazole-3-carboxamide]	> 1
Cc1cc(S(=O)(=O)NC(=O)c2ccccc2)nn1Cc1cc(Cl)ccc1OCc1ccccc1 [Example 359, N-{[1-({5-Chloro-2-[(phenylmethyl)oxy]phenyl}methyl)-5-methyl-1H-pyrazol-3-yl]sulfonyl}benzamide]	> 1
Cc1cc(-c2nc3nccnc3[nH]2)nn1Cc1cc(Cl)ccc1OCc1ccccc1 [Example 368, 2-[1-({5-Chloro-2-[(phenylmethyl)oxy]phenyl}methyl)-5-methyl-1H-pyrazol-3-yl]-1H-imidazo[4,5-b]pyrazine hydrochloride]	> 1
Cc1cc(-c2nc3ccccc3[nH]2)nn1Cc1cc(Cl)ccc1OCc1ccccc1 [Example 385, 2-[1-({5-Chloro-2-[(phenylmethyl)oxy]phenyl}methyl)-5-methyl-1H-pyrazol-3-yl]-1H-benzimidazole]	> 1
Cc1cc(-c2cnc(-n3cccn3)[nH]2)nn1Cc1cc(Cl)ccc1OCc1ccccc1 [Example 481, 1-({5-Chloro-2-[(phenylmethyl)oxy]phenyl}methyl)-5-methyl-3-[2-(1H-pyrazol-1-yl)-1H-imidazol-4-yl]-1H-pyrazole hydrochloride]	> 1
